One assay deals with HCC78. The assay can be described thus: Antiproliferative activity against human HCC78 cells harboring SLC34A2-ROS1 after 72 hrs by MTT assay. In kind it is functional, cell-based. Particulars: HCC78, 72 h. For orientation: Formazan colour is commonly taken as a measure of viable cells.
The target of assay [1] is ALK tyrosine kinase receptor (Homo sapiens, UniProt Q9UM73, L1196M).
Description: Inhibition of human N-terminal GST-tagged ALK L1196M mutant cytoplasmic domain (1058 to 1620 residues) expressed in baculovirus expression system after 1 hr by mobility shift assay
Assay [2] deals with ALK tyrosine kinase receptor (Homo sapiens, UniProt Q9UM73).
Description: Inhibition of human N-terminal GST-tagged ALK cytoplasmic domain (1058 to 1620 residues) expressed in baculovirus expression system after 1 hr by mobility shift assay
Assay [3] deals with ALK tyrosine kinase receptor (Homo sapiens, UniProt Q9UM73, G1202R).
ALK tyrosine kinase receptor (Homo sapiens, UniProt Q9UM73, G1202R), sequence (Q9UM73 19-1620 G1202R limits assumed): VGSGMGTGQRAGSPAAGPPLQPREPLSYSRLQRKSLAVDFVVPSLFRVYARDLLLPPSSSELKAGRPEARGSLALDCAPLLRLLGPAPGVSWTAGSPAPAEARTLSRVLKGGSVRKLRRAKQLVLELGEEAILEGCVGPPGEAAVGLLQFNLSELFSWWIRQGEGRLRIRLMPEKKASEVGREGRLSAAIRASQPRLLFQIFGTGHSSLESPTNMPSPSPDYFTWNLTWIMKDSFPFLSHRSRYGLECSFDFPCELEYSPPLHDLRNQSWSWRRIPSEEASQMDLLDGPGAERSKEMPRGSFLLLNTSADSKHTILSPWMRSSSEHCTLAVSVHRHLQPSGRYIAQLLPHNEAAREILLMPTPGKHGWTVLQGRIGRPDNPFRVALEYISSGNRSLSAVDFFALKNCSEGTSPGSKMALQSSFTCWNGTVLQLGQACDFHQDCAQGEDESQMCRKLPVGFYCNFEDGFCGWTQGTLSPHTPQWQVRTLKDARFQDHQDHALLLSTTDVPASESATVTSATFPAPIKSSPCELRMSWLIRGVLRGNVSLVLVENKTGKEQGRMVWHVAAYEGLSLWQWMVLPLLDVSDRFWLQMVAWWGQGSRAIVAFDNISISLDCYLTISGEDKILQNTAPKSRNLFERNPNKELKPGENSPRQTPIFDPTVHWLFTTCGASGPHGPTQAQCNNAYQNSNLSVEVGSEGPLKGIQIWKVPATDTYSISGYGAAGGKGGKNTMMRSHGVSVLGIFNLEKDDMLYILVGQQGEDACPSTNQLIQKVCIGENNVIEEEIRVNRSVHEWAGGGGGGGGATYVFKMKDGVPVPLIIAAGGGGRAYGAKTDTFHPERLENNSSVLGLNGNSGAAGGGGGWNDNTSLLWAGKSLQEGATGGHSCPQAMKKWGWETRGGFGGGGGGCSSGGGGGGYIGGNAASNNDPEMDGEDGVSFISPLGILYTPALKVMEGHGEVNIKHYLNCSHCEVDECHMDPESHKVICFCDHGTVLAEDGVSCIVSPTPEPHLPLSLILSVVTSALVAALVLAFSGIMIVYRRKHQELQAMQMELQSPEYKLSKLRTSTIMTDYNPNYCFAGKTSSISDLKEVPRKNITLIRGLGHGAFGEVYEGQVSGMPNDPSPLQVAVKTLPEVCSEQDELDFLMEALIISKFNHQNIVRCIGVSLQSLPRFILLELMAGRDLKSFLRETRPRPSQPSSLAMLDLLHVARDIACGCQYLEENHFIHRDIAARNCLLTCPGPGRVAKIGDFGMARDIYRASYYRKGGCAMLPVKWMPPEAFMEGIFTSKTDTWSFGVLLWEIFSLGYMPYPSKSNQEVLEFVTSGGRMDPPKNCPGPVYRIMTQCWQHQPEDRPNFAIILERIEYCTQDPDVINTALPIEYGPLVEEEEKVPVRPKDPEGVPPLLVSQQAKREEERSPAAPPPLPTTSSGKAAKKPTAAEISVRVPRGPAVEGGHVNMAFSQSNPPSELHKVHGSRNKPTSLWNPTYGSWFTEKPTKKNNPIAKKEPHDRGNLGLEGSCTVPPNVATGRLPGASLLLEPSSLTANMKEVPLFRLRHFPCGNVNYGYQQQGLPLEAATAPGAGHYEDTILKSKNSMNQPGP
In assay [4] the target is Proto-oncogene tyrosine-protein kinase ROS (Homo sapiens, UniProt P08922). As to the kind of experiment: Inhibition of human N-terminal GST-tagged ROS cytoplasmic domain (1883 to 2347 residues) expressed in baculovirus expression system after 1 hr by mobility shift assay.
The target of assay [5] is Epidermal growth factor receptor (Homo sapiens, UniProt P00533).
Epidermal growth factor receptor, sequence (P00533 whole entry): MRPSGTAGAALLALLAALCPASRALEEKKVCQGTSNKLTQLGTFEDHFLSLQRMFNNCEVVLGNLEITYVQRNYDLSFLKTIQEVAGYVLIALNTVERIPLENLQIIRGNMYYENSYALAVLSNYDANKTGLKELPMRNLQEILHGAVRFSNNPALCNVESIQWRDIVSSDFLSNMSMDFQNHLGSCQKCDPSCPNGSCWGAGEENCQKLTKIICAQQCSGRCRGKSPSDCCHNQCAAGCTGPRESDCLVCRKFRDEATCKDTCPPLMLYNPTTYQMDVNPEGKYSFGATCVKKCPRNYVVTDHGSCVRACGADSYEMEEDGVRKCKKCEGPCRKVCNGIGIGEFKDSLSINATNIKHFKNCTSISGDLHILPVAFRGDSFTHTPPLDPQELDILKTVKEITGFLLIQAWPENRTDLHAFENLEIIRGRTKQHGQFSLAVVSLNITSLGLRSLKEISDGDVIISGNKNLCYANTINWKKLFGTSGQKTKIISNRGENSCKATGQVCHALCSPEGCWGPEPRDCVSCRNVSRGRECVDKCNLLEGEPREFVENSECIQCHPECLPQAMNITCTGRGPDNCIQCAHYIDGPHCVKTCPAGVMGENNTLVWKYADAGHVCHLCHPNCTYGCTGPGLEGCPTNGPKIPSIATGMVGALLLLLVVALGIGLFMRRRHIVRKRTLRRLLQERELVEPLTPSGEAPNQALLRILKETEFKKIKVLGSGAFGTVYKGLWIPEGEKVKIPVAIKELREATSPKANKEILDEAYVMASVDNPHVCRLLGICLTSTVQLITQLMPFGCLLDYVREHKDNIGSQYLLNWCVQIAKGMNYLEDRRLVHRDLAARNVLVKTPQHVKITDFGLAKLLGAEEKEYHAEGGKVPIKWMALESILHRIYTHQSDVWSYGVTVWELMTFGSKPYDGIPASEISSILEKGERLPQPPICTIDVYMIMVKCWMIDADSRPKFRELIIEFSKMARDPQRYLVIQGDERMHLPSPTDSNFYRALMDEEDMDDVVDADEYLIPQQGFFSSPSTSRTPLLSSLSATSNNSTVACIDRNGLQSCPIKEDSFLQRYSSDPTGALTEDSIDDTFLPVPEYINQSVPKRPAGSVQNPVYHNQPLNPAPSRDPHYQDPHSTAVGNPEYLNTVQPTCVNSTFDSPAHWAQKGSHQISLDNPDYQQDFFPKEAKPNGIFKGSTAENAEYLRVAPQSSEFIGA
Description: Inhibition of human N-terminal GST-tagged EGFR cytoplasmic domain (669 to 1210 residues) expressed in baculovirus expression system after 1 hr by mobility shift assay
The subject of a further assay is NCI-H2228. The assay can be described thus: cells. The note with it: Homo sapiens, NCI-H2228, 72 h.
A further assay deals with KARPAS-299. As to the kind of experiment: cells. Particulars: Homo sapiens, KARPAS-299, 72 h.
The subject of a further assay is BaF3. The assay can be described thus: cells. The note with it: Mus musculus, BaF3, 72 h.
A further assay concerns A549. As to the kind of experiment: cells. The note with it: Homo sapiens, A549, 72 h.

ALK tyrosine kinase receptor (Homo sapiens, UniProt Q9UM73, L1196M), sequence (Q9UM73 19-1620 L1196M limits assumed): as the sequence (Q9UM73 19-1620 G1202R limits assumed) above, with L1178M, R1184G counted along it
ALK tyrosine kinase receptor (Homo sapiens, UniProt Q9UM73), sequence (Q9UM73 whole entry): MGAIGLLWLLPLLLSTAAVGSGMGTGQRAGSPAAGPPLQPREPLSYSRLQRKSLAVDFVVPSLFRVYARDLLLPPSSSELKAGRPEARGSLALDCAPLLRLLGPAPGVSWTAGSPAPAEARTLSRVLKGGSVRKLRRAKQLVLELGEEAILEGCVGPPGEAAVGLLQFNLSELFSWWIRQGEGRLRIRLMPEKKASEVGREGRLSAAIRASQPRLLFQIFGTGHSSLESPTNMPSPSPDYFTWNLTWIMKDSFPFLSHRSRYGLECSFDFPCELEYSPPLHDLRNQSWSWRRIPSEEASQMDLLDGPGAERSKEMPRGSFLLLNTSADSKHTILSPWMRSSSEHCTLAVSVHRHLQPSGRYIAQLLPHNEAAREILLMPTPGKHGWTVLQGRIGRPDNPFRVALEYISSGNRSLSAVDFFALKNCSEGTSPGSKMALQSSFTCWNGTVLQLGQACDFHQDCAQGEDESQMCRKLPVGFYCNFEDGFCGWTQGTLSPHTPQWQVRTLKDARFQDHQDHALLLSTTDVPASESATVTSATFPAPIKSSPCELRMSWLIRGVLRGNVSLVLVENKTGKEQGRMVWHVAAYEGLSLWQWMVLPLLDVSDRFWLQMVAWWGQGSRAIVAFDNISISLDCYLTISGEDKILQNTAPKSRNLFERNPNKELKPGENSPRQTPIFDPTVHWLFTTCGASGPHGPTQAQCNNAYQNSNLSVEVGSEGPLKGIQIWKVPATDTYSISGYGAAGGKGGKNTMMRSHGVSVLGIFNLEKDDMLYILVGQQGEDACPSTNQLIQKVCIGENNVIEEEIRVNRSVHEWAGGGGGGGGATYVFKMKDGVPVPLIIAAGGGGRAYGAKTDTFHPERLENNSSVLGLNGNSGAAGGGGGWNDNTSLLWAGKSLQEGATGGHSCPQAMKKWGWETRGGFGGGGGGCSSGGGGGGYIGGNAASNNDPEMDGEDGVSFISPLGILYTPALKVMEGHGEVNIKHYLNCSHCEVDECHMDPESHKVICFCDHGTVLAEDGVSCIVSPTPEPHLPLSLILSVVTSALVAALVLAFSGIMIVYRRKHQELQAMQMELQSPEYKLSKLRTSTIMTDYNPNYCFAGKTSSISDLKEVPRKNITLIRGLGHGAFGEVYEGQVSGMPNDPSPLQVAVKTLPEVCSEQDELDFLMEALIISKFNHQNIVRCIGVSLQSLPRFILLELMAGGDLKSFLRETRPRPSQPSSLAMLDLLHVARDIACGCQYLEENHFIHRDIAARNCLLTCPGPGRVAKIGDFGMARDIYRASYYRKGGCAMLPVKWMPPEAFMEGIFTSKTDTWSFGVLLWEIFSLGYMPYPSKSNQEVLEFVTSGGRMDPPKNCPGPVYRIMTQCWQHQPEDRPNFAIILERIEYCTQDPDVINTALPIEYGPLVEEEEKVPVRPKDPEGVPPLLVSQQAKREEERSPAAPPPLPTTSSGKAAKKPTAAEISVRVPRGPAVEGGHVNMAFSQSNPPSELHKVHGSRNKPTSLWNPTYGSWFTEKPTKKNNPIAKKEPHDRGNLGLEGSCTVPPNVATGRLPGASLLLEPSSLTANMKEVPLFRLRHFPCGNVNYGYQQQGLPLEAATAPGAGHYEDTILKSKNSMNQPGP
Description for A549: Antiproliferative activity against human A549 cells after 72 hrs by MTT assay
Description for KARPAS-299: Antiproliferative activity against human KARPAS299 cells harboring NPM-ALK after 72 hrs by MTT assay
Description for NCI-H2228: Antiproliferative activity against human NCI-H2228 cells harboring EML4-ALK after 72 hrs by MTT assay

In general, IC50 refers to the midpoint of a concentration-inhibition curve. For the molecule `COc1nc(N2CCN(CCO)CC2)ccc1Nc1ncc(Cl)c(Nc2ccccc2NS(C)(=O)=O)n1`, the IC50 was 110 nM with HCC78; 2200 nM in [1]; 3.2 µM in assay [2]; 7.8 µM in [3]; 3.4 µM in [4]; above 1 mM in assay [5]. Moreover, the IC50 in the assay with NCI-H2228 was 70 nM; in the assay with KARPAS-299 it was 38 nM; in the assay with BaF3, 90 nM; in the assay with A549 it was above 1000 nM.

Take `COc1nc(N2CCCCC2)ccc1Nc1ncc(Cl)c(Nc2ccccc2NS(=O)(=O)C2CC2)n1`: the IC50 in the assay with HCC78 was 390 nM; in the assay with NCI-H2228, 270 nM; with KARPAS-299, 480 nM; in the assay on BaF3, 630 nM; in the assay with A549, above 1000 nM.

With `COc1nc(N2CCSCC2)ccc1Nc1ncc(Cl)c(Nc2ccccc2NS(C)(=O)=O)n1`, the IC50 was 80 nM in the assay with HCC78; 1600 nM in assay [1]; 2.8 µM in [2]; 7.9 µM in assay [3]; 6.1 µM in [4]; above 1 mM in assay [5]. For the same molecule, the IC50 was determined as 24 nM in the assay on NCI-H2228, 27 nM in the assay with KARPAS-299, 50 nM in the assay on BaF3 and 850 nM in the assay with A549.

For the molecule `CS(=O)(=O)Nc1ccccc1Nc1nc(Nc2ccc(N3CCCC3)nc2)ncc1Cl`, the IC50 is 80 nM with HCC78; 480 nM in the assay on NCI-H2228; 80 nM in the assay with KARPAS-299; 740 nM in the assay on BaF3; above 1000 nM with A549.

Regarding `COc1nc(N2CC(O)C2)ccc1Nc1ncc(Cl)c(Nc2ccccc2NS(=O)(=O)C2CC2)n1`, the IC50 with HCC78 is 90 nM; in the assay with NCI-H2228, 50 nM; in the assay on KARPAS-299, 110 nM; in the assay on BaF3, 70 nM; in the assay with A549, above 1000 nM.

Consider `C/C=C/C(=O)Nc1ccccc1Nc1nc(Nc2ccc(N3CCCCC3)nc2OC)ncc1Cl`, for which the IC50 with HCC78 was 210 nM; with NCI-H2228, 360 nM; in the assay with KARPAS-299, 80 nM; with BaF3, 230 nM; in the assay on A549, above 1000 nM.

Turning to `CCN(CC)c1ccc(Nc2ncc(Cl)c(Nc3ccccc3NS(=O)(=O)C3CC3)n2)c(OC)n1`, the IC50 in the assay with HCC78 was 260 nM; in the assay with NCI-H2228 it was 640 nM; with KARPAS-299, 460 nM; with BaF3 it was 120 nM; in the assay with A549, above 1000 nM.

In the case of `C/C=C/C(=O)Nc1ccccc1Nc1nc(Nc2ccc(N3CCNC(C)C3)nc2OC)ncc1Cl` (centres undefined), the IC50 with HCC78 was 920 nM; in the assay with NCI-H2228 it was above 1000 nM; with KARPAS-299 it was 580 nM; in the assay on BaF3 it was above 1000 nM; in the assay with A549 it was above 1000 nM.

On to `COc1nc(N2CCOCC2)ccc1Nc1ncc(Cl)c(Nc2ccccc2NS(=O)(=O)C2CC2)n1`, for which the IC50 in the assay on HCC78 is 480 nM; in the assay on NCI-H2228, 90 nM; in the assay on KARPAS-299, 55 nM; with BaF3, 170 nM; with A549, above 1000 nM.

Consider `CN1CCN(c2ccc(Nc3ncc(Cl)c(Nc4ccccc4NS(C)(=O)=O)n3)cn2)CC1`, for which the IC50 stood at 70 nM in the assay with HCC78; 80 nM with NCI-H2228; 40 nM in the assay with KARPAS-299; 780 nM with BaF3; 850 nM in the assay on A549.

`CCN(CC)c1ccc(Nc2ncc(Cl)c(Nc3ccccc3NS(C)(=O)=O)n2)c(OC)n1`: the IC50 in the assay with HCC78 was 310 nM; with NCI-H2228, 360 nM; with KARPAS-299, 60 nM; in the assay on BaF3, 180 nM; in the assay on A549, above 1000 nM.

Regarding `COc1nc(N2CCCC2)ccc1Nc1ncc(Cl)c(Nc2ccccc2NS(C)(=O)=O)n1`, the IC50 in the assay on HCC78 came out at 240 nM; in the assay with NCI-H2228 it was 170 nM; in the assay with KARPAS-299, 80 nM; with BaF3, 130 nM; in the assay on A549 it was 710 nM.

Consider `CC(C)Sc1nc(N2CCN(C)CC2)ccc1Nc1ncc(Cl)c(Nc2ccccc2NS(C)(=O)=O)n1`, for which the IC50 in the assay with HCC78 was 130 nM; in the assay with NCI-H2228 it was 420 nM; in the assay on KARPAS-299, 340 nM; in the assay on BaF3, above 1000 nM; in the assay on A549, above 1000 nM.

`CC(C)Oc1nc(N2CCCC2)ccc1Nc1ncc(Cl)c(Nc2ccccc2NS(C)(=O)=O)n1`: the IC50 amounted to 90 nM with HCC78; 410 nM in the assay on NCI-H2228; 310 nM with KARPAS-299; 850 nM in the assay with BaF3; 820 nM in the assay on A549.

Turning to `CC(C)Sc1nc(N2CCCC2)ccc1Nc1ncc(Cl)c(Nc2ccccc2NS(C)(=O)=O)n1`, the IC50 in the assay on HCC78 was 320 nM; with NCI-H2228, 980 nM; in the assay with KARPAS-299 it was 750 nM; in the assay with BaF3 it was above 1000 nM; in the assay with A549, above 1000 nM.

Consider `COc1nc(N2CCCCC2)ccc1Nc1ncc(Cl)c(Nc2ccccc2NS(C)(=O)=O)n1`, for which the IC50 is 190 nM in the assay with HCC78; 130 nM in the assay on NCI-H2228; 40 nM with KARPAS-299; 330 nM in the assay on BaF3; above 1000 nM in the assay on A549.

Regarding `COc1nc(N2CCNC(C)C2)ccc1Nc1ncc(Cl)c(Nc2ccccc2NS(C)(=O)=O)n1` (centres undefined), the IC50 in the assay on HCC78 is 440 nM; in the assay on NCI-H2228, 490 nM; in the assay on KARPAS-299, 390 nM; with BaF3, above 1000 nM; in the assay on A549, above 1000 nM.

As for `C/C=C/C(=O)Nc1ccccc1Nc1nc(Nc2ccc(N3CCCC3)nc2OC)ncc1Cl`, the IC50 in the assay on HCC78 is 160 nM; in the assay with NCI-H2228 it was 380 nM; in the assay with KARPAS-299, 220 nM; in the assay on BaF3, 300 nM; with A549, above 1000 nM.

For `CCN1CCN(c2ccc(Nc3ncc(Cl)c(Nc4ccccc4NS(C)(=O)=O)n3)c(OC)n2)CC1`, the IC50 in the assay on HCC78 was 740 nM; in the assay with NCI-H2228, 950 nM; in the assay on KARPAS-299, 880 nM; in the assay on BaF3, above 1000 nM; with A549, above 1000 nM.

For the molecule `C/C=C/C(=O)Nc1ccccc1Nc1nc(Nc2ccc(N3CCN(C)CC3)nc2OC)ncc1Cl`, the IC50 was 410 nM in the assay with HCC78; 270 nM in the assay on NCI-H2228; 72 nM with KARPAS-299; 110 nM in the assay with BaF3; above 1000 nM with A549.

`CN1CCN(c2ccc(Nc3ncc(Cl)c(Nc4ccccc4NS(=O)(=O)C4CC4)n3)cn2)CC1`: the IC50 in the assay with HCC78 is 90 nM; with NCI-H2228 it was 140 nM; with KARPAS-299, 60 nM; in the assay with BaF3, 440 nM; with A549 it was above 1000 nM.

Consider `COc1nc(N2CCN(CCO)CC2)ccc1Nc1ncc(Cl)c(Nc2ccccc2NS(=O)(=O)C2CC2)n1`, for which the IC50 was 130 nM in the assay on HCC78; 18 nM in the assay on NCI-H2228; 35 nM in the assay with KARPAS-299; 40 nM in the assay with BaF3; above 1000 nM with A549.

`COc1nc(N2CCN(C)CC2)ccc1Nc1ncc(Cl)c(Nc2ccccc2NC(C)=O)n1`: the IC50 in the assay with HCC78 is 140 nM; in the assay on NCI-H2228, 160 nM; in the assay on KARPAS-299 it was 27 nM; with BaF3 it was 90 nM; in the assay on A549 it was 700 nM.

Turning to `COc1nc(N2CCCC2)ccc1Nc1ncc(Cl)c(Nc2ccccc2NS(=O)(=O)C2CC2)n1`, the IC50 in the assay with HCC78 was 240 nM; in the assay on NCI-H2228, 410 nM; with KARPAS-299, 120 nM; with BaF3 it was above 1000 nM; with A549 it was above 1000 nM.

As to `Cc1cc(Nc2ncc(Cl)c(Nc3ccccc3S(=O)(=O)C(C)C)n2)c(OC(C)C)cc1C1CCNCC1` [CERITINIB], the IC50 in the assay with NCI-H2228 was 26 nM; in the assay on KARPAS-299, 41 nM; with BaF3, above 1000 nM; in the assay on A549, above 1000 nM.

The record behind these values is ChEMBL document CHEMBL4265930, “Dual potent ALK and ROS1 inhibitors combating drug-resistant mutants: Synthesis and biological evaluation of aminopyridine-containing diarylaminopyrimidine derivatives” (Eur J Med Chem, 2018).
